Where “and” joins values, the source holds several entries; their conditions need not be identical. Equal entries are not always repeated.

Data set [1] is described as follows: Cytotoxicity in HT-22 cells (PrestoBlue). Conditions: mouse, HT-22 hippocampal neuronal cells. As to the method: The compounds were tested at 5 concentrations (0.1, 1, 10, 50, and 100 μM).
Mouse Hippocampal Neuronal Cell Line (HT-22) was a generous gift from Dr Bartosz Pomierny of the Department of Biochemical Toxicology, Jagiellonian University Medical College, Krakow, Poland. Cells were cultured in Dulbecco’s modified Eagle’s Medium—high glucose (DMEM, Glutamax Thermo Fisher) supplemented with 10% heat-inactivated fetal bovine serum (Thermo Fisher), 100 IU/mL penicillin (Merck) and 100 μg/mL streptomycin (Merck). Cells were cultured in flasks (area 175 cm^2, Nunc), and incubated at 37 °C, 5% CO2. For the measurement of cell viability and neuroprotective effect against okadaic acid cells were placed in a 96-well culture plate (2 × 10^4 cells per well, Falcon). Before the tests, cells were grown for 24 h in the incubator (37 °C, 5% CO2).
Cell viability was evaluated using the PrestoBlue reagent (ThermoFisher), according to the manufacturer’s procedures.[87] Following 24 h of incubation with the tested molecule, PrestoBlue reagent was added to a microplate well in an amount equal to one-tenth of the remaining medium volume. The resulting mixture was incubated for 15 min at 37 °C, and the fluorescence intensity (EX 530 nm; EM 580 nm) was measured in the plate reader POLARstar Omega, (BMG Labtech).

Data set [2] concerns BV-2 cell line. The experiment in a line: NO release in LPS-treated BV-2 cells (DAN fluorometric assay). In kind it is cell-based, mouse. Conditions: compound 10 μM; LPS 100 ng/mL. As to the method:
Cell viability was determined by Presto Blue assay after 24 h. (B) Effect of compounds 11, 34, and 36 (0.1, 1, 10 μM) on NO-release (%) in LPS-treated (100 ng/mL) BV-2 cell line. NO-release was measured using a fluorometric assay with 2,3-diaminonaphthalene (DAN). (C, D) Effects of compounds 11 and 36 (0.1, 1, 10 μM) on IL-6 and TNF-α release in LPS-treated (100 ng/mL) BV-2 cell line. The IL-6 and TNF-α levels were measured using LANCE Ultra TR-FRET Detection Kit (PerkinElmer). Statistical analysis was performed using GraphPad Prism 9.0.0. All values are expressed as mean with SD. Differences among groups were evaluated by one-way ANOVA followed by posthoc analysis (Dunnett’s multiple comparison tests) vs. control group (LPS on BV-2 cells and okadaic acid on HT-22 cells) and were considered statistically significant if p < 0.05 (*p < 0.05, **p < 0.01, ***p < 0.001, and ****p < 0.0001).
An important role in the pathogenesis of AD has been attributed to neuroinflammation resulting from the activation of astrocytes and microglial cells.[55] These processes lead to increased production of proinflammatory cytokines such as TNF-α or IL-6 that activate processes, e.g., tau hyperphosphorylation, causing injury and cell death.[56] A standard model of neuroinflammation is based on lipopolysaccharide-stimulated BV-2 microglial cells. In this study, we used this model to evaluate the anti-inflammatory properties of compounds 11, 34, and 36.[57] Our evaluation focused on monitoring the levels of key inflammatory markers, including nitric oxide (NO, Figure 6B) and cytokines, TNF-α and IL-6 (Figure 6C,D).
The cells were pretreated with tested compounds for 1 h. […]
The NO level in the culture supernatants was measured using 2,3-diaminonaphthalene (DAN) reagent according to the method of Nussler et al.[88] After 15 min of incubation at room temperature, the fluorescence intensity (EX 360; EM 440 nm) was measured using a microplate reader POLARstar Omega, (BMG Labtech). The values of nitric oxide were calculated as a percentage of control (maximal response of LPS).

The conditions of data set [3]: human liver microsomes; for % of the compound remaining after 2 h of incubation: 2 h (120 min), 37 °C. As for the experimental part:
The primary site of drug metabolism in humans is the liver. Therefore, we used human liver microsomes (HLM) to determine the metabolic stability of selected compounds (Table 3). The compounds were incubated with HLMs for 2 h, and the resulting mixtures were analyzed with UPLC-MS (for details including the UPLC-MS spectra, see Table S10 and Figures S17–S22 in the SI).
All protocols used for the evaluation of drug-like properties (ADME-To parameters) were described in our previous works.[58],[89] Precoated PAMPA Plate System Gentest was obtained from Corning, (Tewksbury, MA, USA). The metabolic stability assay was performed on human liver microsomes (HLMs, Sigma-Aldrich, St. Louis, MO, USA). The assays with microsomes were supported by MetaSite 6.0.1 software (Molecular Discovery Ltd. Hertfordshire, UK). To predict potential drug–drug interactions (DDIs) the influence on CYP3A4, CYP2D6, and CYP2C9 were carried with use of respective P450-Glo kit (Promega, Madison, WI, USA). The luminescence signal and absorbance were measured by using a microplate reader EnSpire PerkinElmer (Waltham, MA, USA). The LC/MS/MS analyses used in PAMPA and the assays with use of HLMs were obtained on Waters ACQUITY TQD system (Waters, Milford, CT, USA). […] Statistical significances and IC50 values were calculated by Graph Pad Prism 9 software.
Table S9. Differences in binding energies given for methods in gas and water environment.
Method gas [kcal/mol] water [kcal/mol]
Metabolic stability of compounds 11 and 36 in human liver microsomes (HLMs)
Table S10. The molecular masses and metabolic pathways of compounds 11 and 36 determined using human liver microsomes.
Substrate mass % mass of the Metabolic pathway*
(m/z) remaining metabolite
*most probable metabolic pathways were estimated by MS analyses supported by in silico prediction using MetaSite 6.0.1 and ADMET Predictor tools
Figure S17. The MetaSite 6.0.1. software prediction of the most probabl e sites of compounds’ 11 and 36 metabolism. The darker the red color - the higher the probability of being involved […]
A general note: Liver microsomes are vesicles of endoplasmic reticulum, rich in cytochrome P450 enzymes.

Turning to `NC(=O)N1CC=C(c2ccnc(NC(=O)C3CC3)c2)C1` [Compound 11, 3-(2-(Cyclopropanecarboxamido)pyridin-4-yl)-2,5-dihydro-1H-pyrrole-1-carboxamide], half-maximal inhibition in data set [1] (IC50 at 24 h) was put at 45.8 ± 9.7 µM. For the same compound, the NO release result in data set [2] is given as “significantly reducing the release”. The “% of the compound remaining after 2 h of incubation” value in data set [3] is given as 100%.

As to `O=C(Nc1cc(-c2ccc(-c3ncon3)s2)ccn1)C1CC1` [Compound 36, N-(4-(5-(1,2,4-Oxadiazol-3-yl)thiophen-2-yl)pyridin-2-yl)cyclopropanecarboxamide], in data set [1], the half-maximal inhibitory concentration (IC50) (commonly the concentration that inhibits the measured activity by half) at 24 h was above 100 µM. The NO release result in data set [2] is recorded as “significantly reducing the release”. Also, the “% of the compound metabolized” value in data set [3] (2 h) is 11%. Moreover, the “% of the compound remaining after 2 h of incubation” value in data set [3] was 88.61% and 88.6%.

The values are drawn from paper PMC11378298 (ACS Chemical Neuroscience, 2024).
